Data: the supplement of paper PMC5579334

Key:
HS-PSS [1] = assay: drug sensitivity score (DSS, CellTox-Green cytotoxicity, 72 h) (DSS (dimensionless)); higher = more cytotoxic; extreme values may be limits of the assay
Outline: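 For 72 h at 37 °C, MPNST cell lines and primary human Schwann cells were exposed in 384-well plates to five 10-fold compound dilutions. CellTox-Green, added before seeding at a final 1:1000 dilution, gave fluorescence from DNA released by disrupted cells. Signals were scaled to vehicle and positive-control wells, cultures failing plate quality control were left out, and four-parameter logistic fits were applied. Relative IC50 and drug sensitivity score were derived from the fits, with IC50 censored at the top concentration.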

HS-Sch-2 [2] = assay: drug sensitivity score (DSS, CellTiter-Glo viability, 72 h) (DSS (dimensionless)); higher = more sensitive; extreme values may be limits of the assay
Outline: (§1)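 MPNST cell lines and primary human Schwann cells were seeded at 750–1000 cells per well into 384-well plates preprinted with each compound at five concentrations in 10-fold steps, then incubated 72 h at 37 °C, 5% CO2. CellTiter-Glo ATP luminescence gave viability, scaled between vehicle and positive-control wells, with duplicates averaged where present. Curves were fitted with a four-parameter logistic model. Percent inhibition refers to the top concentration, while drug sensitivity score and relative IC50, censored at the top concentration, come from these fits.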

YST-1 [3] = assay: as above
Outline: as §1

HS-PSS [4] = assay: as above
Outline: as §1

HS-Sch-2 [5] = assay: % inhibition of CellTiter-Glo viability at highest tested concentration (72 h), relative to DMSO and benzethonium chloride controls; higher = more inhibition
Outline: as §1

YST-1 [6] = assay: as above
Outline: as §1

HS-PSS [7] = assay: as above
Outline: as §1

Compound	drug sensitivity score (HS-PSS [1])	drug sensitivity score (HS-Sch-2 [2])	drug sensitivity score (YST-1 [3])	drug sensitivity score (HS-PSS [4])	% inhibition (HS-Sch-2 [5])	% inhibition (YST-1 [6])	% inhibition (HS-PSS [7])
CNC(=O)c1ccc2cc([C@@]3(O)CCn4cncc43)ccc2c1 [Orteronel] (max concentration tested 10000 nM)	0	0	0	0	-4.34%	7.23%	-7%
COc1cc(N2CCN(C)CC2)ccc1Nc1nccc(-c2cn(C)c3cnccc23)n1 [AZ191] (max concentration tested 10000 nM)	1.42	5.07	3.96	5.3	95.6%	76.4%	80.5%
CN(C)C(=O)c1ccc(S(=O)(=O)c2ccc(NC(=O)[C@@](C)(O)C(F)(F)F)c(Cl)c2)cc1 [AZD7545] (max concentration tested 10000 nM)	0	0.76	0	2.45	17.4%	2.29%	57%
O=C(/C=C\n1cnc(-c2cc(C(F)(F)F)cc(C(F)(F)F)c2)n1)NNc1ccccn1 [Verdinexor] (max concentration tested 1000 nM)	0.01	9.76	8.71	5.78	97%	88.9%	60%
O=C(Nc1cccc(C(F)(F)F)c1)Nc1cc(S(=O)(=O)NC2CC2)ccc1-c1ccsc1 [AGI-6780] (max concentration tested 10000 nM)	0	2.42	0.34	0.86	28.6%	12.9%	24.7%
NS(=O)(=O)NCCNc1nonc1/C(=N/O)Nc1ccc(F)c(Br)c1 [Epacadostat] (max concentration tested 10000 nM)	0	0.29	0	0	13.3%	12.5%	6.08%
COc1c(OCCCN2CCOCC2)ccc2c1N=C(NC(=O)c1cnc(N)nc1)N1CCN=C21 [Copanlisib] (max concentration tested 1000 nM)	0	7.87	17.5	1.69	70.5%	92.5%	44%
Nc1nc(Nc2ccc3c(c2)CC[C@@H](N2CCCC2)CC3)nn1-c1cc2c(nn1)-c1ccccc1CCC2 [BGB324] (max concentration tested 10000 nM)	0	14.4	7.59	2.95	99.5%	99.3%	23.7%
COc1ccc(-c2nc(N3CCOCC3)c3sc(CN(C)c4ncc(C(=O)NO)cn4)cc3n2)cn1 [CUDC-907] (max concentration tested 10000 nM)	19.2	31.9	40.4	31.6	99.5%	100%	98.6%
CN1CC[C@@H](NC(=O)Nc2ccc(C#N)cc2)C[C@@H]1c1nc2ccccc2[nH]1 [Glasdegib] (max concentration tested 1000 nM)	0	1.4	0	2.26	20.6%	1.47%	21.2%
CCN(CC)CCCC(C)Nc1ccnc2cc(Cl)ccc12 (configuration not stated) [Chloroquine] (max concentration tested 100000 nM)	9.74	17.1	9.66	18.7	102%	102%	102%
CCS(=O)(=O)N1CC(CC#N)(n2cc(-c3ncnc4[nH]ccc34)cn2)C1 [Baricitinib] (max concentration tested 2500 nM)	0	0	0	0	4.94%	-0.02%	1.87%
CN[C@@H](C)C(=O)N[C@H](C(=O)N1CCC[C@H]1c1nc(C(=O)c2ccc(F)cc2)cs1)C1CCCCC1 [LCL161] (max concentration tested 25000 nM)	0.11	2.38	3.14	2.18	44.2%	38.7%	27.8%
Cc1c(NC(=O)OC[C@@H]2COCCN2)cn2ncnc(Nc3ccc4c(cnn4Cc4cccc(F)c4)c3)c12 (max concentration tested 10000 nM)	0.6	3.4	2.68	5.43	44.4%	26.8%	71.3%
Cc1sc2c(c1C)C(c1ccc(Cl)cc1)=N[C@@H](CC(=O)OC(C)(C)C)c1nnc(C)n1-2 [JQ1] (max concentration tested 10000 nM)	0	13.1	13.1	10	76.3%	72.6%	59.1%
CCN(CC)Cc1ccc2cc(COC(=O)Nc3ccc(C(=O)NO)cc3)ccc2c1 [Givinostat] (max concentration tested 1000 nM)	1.98	8.81	13.1	3.45	98%	98.9%	69.4%
Cc1cc([C@@H](C)Nc2ccccc2C(=O)O)c2nc(N3CCOCC3)cc(=O)n2c1 [AZD-6482] (max concentration tested 2500 nM)	0	0	0.53	0	0.36%	17.1%	9.25%
CC(C)Oc1ccc(C(=O)N[C@H](CNC(=O)CN(C)C)Cc2ccc(-c3cn4cccc([C@H](C)O)c4n3)cc2)cc1Cl (max concentration tested 10000 nM)	1.48	24.1	19.5	8.56	95.2%	62%	66.7%

Compound	drug sensitivity score (HS-PSS [1])	drug sensitivity score (HS-Sch-2 [2])	drug sensitivity score (YST-1 [3])	drug sensitivity score (HS-PSS [4])	% inhibition (HS-Sch-2 [5])	% inhibition (YST-1 [6])	% inhibition (HS-PSS [7])
CCNC(=O)C[C@@H]1N=C(c2ccc(Cl)cc2)c2cc(OC)ccc2-n2c(C)nnc21 (max concentration tested 10000 nM)	0	8.49	10.2	7.28	63.1%	65.3%	58.4%
CNC(=O)c1ccc(-c2cnc3ncc(Cc4ccc5ncccc5c4)n3n2)cc1F [NVP-INC280] (max concentration tested 1000 nM)	0	1.29	0.19	0	6.7%	12.3%	7.48%
Cc1cnc(-c2ccccc2C(C)C)nc1NCc1ccc(-n2ccnn2)cc1 [ML323] (max concentration tested 10000 nM)	0	3.67	0.66	3.56	39.9%	18.2%	42%
CC(C)Oc1cc(Nc2nc(N[C@@H](C)c3ccc(F)cn3)ncc2Cl)n[nH]1 [AZ-23] (max concentration tested 1000 nM)	0	1.29	1.96	0.29	21.1%	26.5%	12.4%
CC(C)(O)CC(=O)NCCn1ccc2ncnc(Nc3ccc(Oc4cccc(C(F)(F)F)c4)c(Cl)c3)c21 [TAK-285] (max concentration tested 2500 nM)	0	0	0	0.89	-0.95%	6.24%	-2.72%
Clc1ccccc1C(c1ccccc1)(c1ccccc1)n1cccn1 [TRAM-34] (max concentration tested 1000 nM)	0	0.38	0	0.59	15.5%	3.42%	13.4%
CS(=O)(=O)N1CCc2c(-c3cnc(N)nc3)nc(N3CCOCC3)nc21 (max concentration tested 10000 nM)	0	3.35	14.4	4.81	32%	77.8%	42.7%
Cn1cc(-c2ccc3nnc(Sc4ccc5ncccc5c4)n3n2)cn1 [SGX-523] (max concentration tested 5000 nM)	0	0	0	0	5.27%	-2.5%	2.63%
C[C@@H]1COC(Nc2ccc3ncnc(Nc4ccc(OCc5nccs5)c(Cl)c4)c3c2)=N1 [Varlitinib] (max concentration tested 10000 nM)	0	2.41	3.23	5.07	30.6%	27.7%	42%
Nc1cccc2c1CN(C1CCC(=O)NC1=O)C2=O (configuration not stated) [Lenalidomide] (max concentration tested 100000 nM)	0	0.18	1.7	0	15.6%	20.7%	6.75%
Cn1cc(-c2ccc3nnc(C(F)(F)c4ccc5ncccc5c4)n3n2)cn1 (max concentration tested 10000 nM)	0	0.05	0.54	1.21	11.5%	18.4%	17.4%
CNc1ncc2cc(-c3cc(NC(=O)NCCC(C)(C)C)c(F)cc3C)c(C)nc2n1 (max concentration tested 10000 nM)	0.82	10.8	6.37	3.13	55.9%	46.5%	69.1%
CCNC(=O)c1noc(-c2cc(C(C)C)c(O)cc2O)c1-c1ccc(CN2CCOCC2)cc1 [Luminespib] (max concentration tested 1000 nM)	3.7	23.5	19.5	14	98.9%	79.6%	82.2%
CNC(=O)CN1CCC(Oc2cc3c(Nc4cccc(Cl)c4F)ncnc3cc2OC)CC1 [Sapitinib] (max concentration tested 1000 nM)	0	0.17	0.48	0	11.1%	15.3%	9.33%
Cc1cc(C)c(/C=C2\C(=O)Nc3ccccc32)[nH]1 [Semaxanib] (max concentration tested 10000 nM)	4.89	0	2.84	0	-7.06%	14.4%	0.19%
O=C(O)c1ccc(Nc2ncc3c(n2)-c2ccc(Cl)cc2C(c2c(F)cccc2F)=NC3)cc1 [MLN-8054] (max concentration tested 10000 nM)	0	6.25	6.64	3.57	60.3%	46.6%	36.4%
Cc1c(F)cc(C(=O)NC2CC2)cc1-c1ccc(C(=O)NCC(C)(C)C)cn1 [Losmapimod] (max concentration tested 10000 nM)	0	0	10.1	0	1.17%	32.3%	8.01%
FC(F)(F)c1ccc(CNc2ccc(Cc3c[nH]c4ncc(Cl)cc34)cn2)cn1 [Pexidartinib] (max concentration tested 10000 nM)	0	0.57	0.84	1.79	18.9%	17.3%	25.9%
